A short description of experiment [1]: Luminescent dose response cell-based high throughput screening assay for inhibitors of the Janus kinase 2 mutant JAK2V617F. [Related pubchem assays: 1446 (Primary screen.), 1521 (Confirmation assay.), 1486 (Counter screen.)]. Format: functional. A general note: The purpose of a counterscreen is to sort out artefacts and off-target activity.
Experiment [2] in a line: HEp-2 cell cytotoxicity, dose response, cytotoxicity control for RSV inhibitor project, HTS (AID 2410). Format: functional. The following applies: human respiratory syncytial virus.
Experiment [3] in a line: cells.
Experiment [4] addresses T1, Estrogen receptor beta (Homo sapiens, UniProt Q92731).
For another experiment, the target named is T2, Bcl-2-like protein 10 (Homo sapiens, UniProt Q9HD36).
T2 sequence (Q9HD36 whole entry): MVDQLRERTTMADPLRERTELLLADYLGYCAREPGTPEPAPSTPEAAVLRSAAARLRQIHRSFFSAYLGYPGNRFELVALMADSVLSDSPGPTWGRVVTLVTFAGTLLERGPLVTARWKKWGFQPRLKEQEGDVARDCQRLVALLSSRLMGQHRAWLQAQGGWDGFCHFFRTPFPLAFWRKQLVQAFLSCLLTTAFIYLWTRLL
Nature of the experiment: displacers of TR3 peptide from Bcl-B, primary screen, selectivity assay for Bfl-1 inhibitor project, biochemical, fluorescence polarization, FITC-TR3 peptide (AID 748).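 Note: fluorescence polarization from a fluorescein-labelled TR3 peptide binding purified Bcl-B.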

The target in experiment [5] is T1, Estrogen receptor beta. Nature of the experiment: ERβ–SRC-3 coactivator interaction inhibitors, confirmation, orthogonal assay, biochemical, ELISA, streptavidin-HRP readout (AID 1060). In general terms: ELISA stands for enzyme-linked immunosorbent assay.
A short description of experiment [6]: M. tuberculosis H37Rv growth inhibitors, H37Rv strain (AID 1626). It is filed as functional.
A further experiment has as its system Vero. The experiment in a line: host cell cytotoxicity of antiviral hits, dose response, cytotoxicity control for West Nile virus antiviral project, secondary assay (AID 1650). Format: functional. The conditions noted are these: Chlorocebus sabaeus.
In experiment [7] the target is T3, Corticotropin-releasing factor receptor 2/Corticotropin-releasing factor-binding protein (Homo sapiens, UniProt P24387+Q13324).
T3 sequence (Q13324 whole entry): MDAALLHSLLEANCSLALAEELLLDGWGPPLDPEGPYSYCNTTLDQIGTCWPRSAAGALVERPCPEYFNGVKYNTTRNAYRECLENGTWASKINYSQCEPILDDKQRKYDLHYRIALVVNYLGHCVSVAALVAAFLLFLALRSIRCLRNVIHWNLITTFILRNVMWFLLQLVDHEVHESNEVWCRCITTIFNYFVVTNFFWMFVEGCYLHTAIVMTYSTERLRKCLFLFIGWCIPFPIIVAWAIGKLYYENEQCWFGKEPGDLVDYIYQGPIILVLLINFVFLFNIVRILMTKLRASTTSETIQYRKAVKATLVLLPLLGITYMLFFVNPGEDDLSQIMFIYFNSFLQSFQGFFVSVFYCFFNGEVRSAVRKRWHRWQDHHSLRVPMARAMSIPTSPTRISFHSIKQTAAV
T3 sequence (P24387 whole entry): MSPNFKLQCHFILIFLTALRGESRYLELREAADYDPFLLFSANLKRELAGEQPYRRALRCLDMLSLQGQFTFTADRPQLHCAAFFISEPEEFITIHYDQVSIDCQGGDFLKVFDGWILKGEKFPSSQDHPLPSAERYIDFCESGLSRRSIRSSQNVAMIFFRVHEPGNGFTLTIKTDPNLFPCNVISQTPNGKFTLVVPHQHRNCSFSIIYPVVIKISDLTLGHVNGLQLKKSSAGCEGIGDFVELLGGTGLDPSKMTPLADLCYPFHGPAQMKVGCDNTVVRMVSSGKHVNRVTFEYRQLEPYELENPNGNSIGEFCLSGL
Nature of the experiment: Dose Response confirmation of uHTS hits for small molecule antagonists of the CRF-binding protein and CRF-R2 receptor complex. Format: functional. The conditions noted are these: read-out: IC50_Mean.

The target of experiment [8] is T3, Corticotropin-releasing factor receptor 2/Corticotropin-releasing factor-binding protein. The experiment in a line: activators of CRF receptor 2 with binding protein – uHTS hits, confirmation (AID 602473). It is filed as functional. The following applies: read-out: EC50_Mean.
Experiment [9] concerns the target Luciferin 4-monooxygenase (Photinus pyralis, UniProt P08659). Nature of the experiment: Counter Screen for Luciferase-based Assay Positives. [Related pubchem assays: 620, 618, 411 ].
The subject of the next experiment is HT-1080. The experiment in a line: cytotoxicity in HT1080 fibrosarcoma cells, cell-based, fluorescence readout (AID 620). Format: functional. The following applies: Homo sapiens.
Experiment [10] in a line: Luminescence Cell-Based Dose Response HTS to Identify Inhibitors of 5'UTR Stem-Loop Driven Prion Protein mRNA Translation in H4 Neuroglioblastoma Cells. [Related pubchem assays: 1827 (Project Summary), 1813 (Primary HTS)]. Format: functional.
Experiment [11] in a line: inhibitors of SNCA 5'UTR-driven reporter translation, confirmation, H4 neuroglioma cells, luminescence (AID 1988). It is filed as functional, cell-based.
The target of experiment [12] is T4, Microphthalmia-associated transcription factor (Homo sapiens, UniProt O75030).
T4 sequence (O75030 whole entry): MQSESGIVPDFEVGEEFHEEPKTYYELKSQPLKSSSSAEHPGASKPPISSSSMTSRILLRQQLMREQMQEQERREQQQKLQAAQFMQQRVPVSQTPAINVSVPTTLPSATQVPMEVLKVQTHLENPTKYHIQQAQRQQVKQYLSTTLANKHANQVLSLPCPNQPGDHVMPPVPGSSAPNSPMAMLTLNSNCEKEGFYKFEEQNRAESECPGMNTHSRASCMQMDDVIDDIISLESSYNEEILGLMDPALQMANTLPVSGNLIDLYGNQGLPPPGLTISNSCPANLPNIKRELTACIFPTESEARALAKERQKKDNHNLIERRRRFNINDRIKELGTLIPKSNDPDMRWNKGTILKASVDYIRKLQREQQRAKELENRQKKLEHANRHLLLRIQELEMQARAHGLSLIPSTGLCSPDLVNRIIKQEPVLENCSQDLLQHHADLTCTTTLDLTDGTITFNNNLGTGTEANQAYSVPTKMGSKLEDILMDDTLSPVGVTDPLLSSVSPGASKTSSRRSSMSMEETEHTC
The experiment in a line: TRPM1 promoter luciferase signal decrease, dose response, MITF inhibitor project, cell-based, SK-MEL-5, cherry-picked, set 3 (AID 493073).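 Note: SK-MEL-5 melanoma cells with luciferase driven by the MITF target TRPM1 promoter.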 It is filed as functional.

The target of experiment [13] is T5, Replicative DNA helicase DnaB (Mycobacterium tuberculosis, UniProt P9WMR3).
T5 sequence (P9WMR3 whole entry): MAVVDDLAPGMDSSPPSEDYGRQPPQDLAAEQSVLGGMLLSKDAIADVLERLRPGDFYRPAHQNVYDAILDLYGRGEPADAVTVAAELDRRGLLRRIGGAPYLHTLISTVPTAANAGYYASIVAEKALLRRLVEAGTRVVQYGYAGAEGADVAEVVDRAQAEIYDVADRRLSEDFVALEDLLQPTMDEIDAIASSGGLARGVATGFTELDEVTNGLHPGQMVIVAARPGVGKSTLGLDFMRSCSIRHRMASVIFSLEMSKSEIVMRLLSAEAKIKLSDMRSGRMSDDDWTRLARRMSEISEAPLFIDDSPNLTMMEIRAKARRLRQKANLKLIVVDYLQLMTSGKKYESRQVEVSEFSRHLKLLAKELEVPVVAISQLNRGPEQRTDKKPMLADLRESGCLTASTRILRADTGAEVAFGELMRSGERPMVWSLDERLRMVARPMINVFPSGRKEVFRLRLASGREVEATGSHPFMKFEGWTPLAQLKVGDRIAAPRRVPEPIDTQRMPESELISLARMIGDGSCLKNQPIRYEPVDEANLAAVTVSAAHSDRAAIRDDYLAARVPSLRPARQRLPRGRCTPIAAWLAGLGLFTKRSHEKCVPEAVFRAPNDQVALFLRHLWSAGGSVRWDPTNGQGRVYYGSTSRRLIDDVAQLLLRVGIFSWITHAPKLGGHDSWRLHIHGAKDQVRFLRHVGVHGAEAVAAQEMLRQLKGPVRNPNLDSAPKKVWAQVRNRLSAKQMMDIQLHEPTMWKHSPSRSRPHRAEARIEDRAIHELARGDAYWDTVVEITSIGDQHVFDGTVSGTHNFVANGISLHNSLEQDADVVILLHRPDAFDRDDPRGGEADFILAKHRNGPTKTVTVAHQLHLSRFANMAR
The experiment in a line: DnaB intein splicing inhibitors, dose response, biochemical, cell-free fluorescence (AID 449749). Format: functional.

The nature of experiment [14]: microbe, parasite or virus in culture. It is filed as functional. The following applies: Mycobacterium tuberculosis.
For a further experiment, the target named is T6, Protein RecA (Mycobacterium tuberculosis, UniProt P9WHJ3).
T6 sequence (P9WHJ3 whole entry): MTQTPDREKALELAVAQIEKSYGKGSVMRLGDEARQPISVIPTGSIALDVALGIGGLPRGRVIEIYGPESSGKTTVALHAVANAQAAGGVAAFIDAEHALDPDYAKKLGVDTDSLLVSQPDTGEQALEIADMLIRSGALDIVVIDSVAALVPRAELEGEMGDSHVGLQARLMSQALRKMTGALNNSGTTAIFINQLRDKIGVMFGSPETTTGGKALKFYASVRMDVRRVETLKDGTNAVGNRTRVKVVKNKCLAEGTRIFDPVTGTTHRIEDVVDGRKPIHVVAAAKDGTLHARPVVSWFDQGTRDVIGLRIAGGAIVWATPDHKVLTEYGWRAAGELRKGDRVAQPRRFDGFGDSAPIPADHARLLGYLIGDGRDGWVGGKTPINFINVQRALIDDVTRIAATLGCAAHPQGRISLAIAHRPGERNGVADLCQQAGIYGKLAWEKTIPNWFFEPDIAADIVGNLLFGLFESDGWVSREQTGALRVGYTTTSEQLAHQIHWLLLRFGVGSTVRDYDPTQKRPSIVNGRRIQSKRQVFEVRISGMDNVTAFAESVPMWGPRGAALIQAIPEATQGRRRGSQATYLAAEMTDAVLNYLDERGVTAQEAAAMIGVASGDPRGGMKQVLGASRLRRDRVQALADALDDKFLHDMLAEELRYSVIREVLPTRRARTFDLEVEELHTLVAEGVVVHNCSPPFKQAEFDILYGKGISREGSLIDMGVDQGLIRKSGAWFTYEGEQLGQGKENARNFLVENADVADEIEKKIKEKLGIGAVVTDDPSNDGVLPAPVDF
The experiment in a line: Fluorescence Cell-Free Homogeneous Dose Retest to Identify Inhibitors of RecA-Intein Splicing Activity. [Related pubchem assays (depositor defined):AID2097, AID2223, AID489010, AID492950]. It is filed as functional.

Experiment [15] concerns the target Voltage-gated inwardly rectifying potassium channel KCNH2 (Homo sapiens, UniProt Q12809). Nature of the experiment: hERG protection from proarrhythmic block, potency, dose response, cell-based, thallium flux (AID 2121). It is filed as ADME. (Block of hERG is tested as a sign of cardiac risk.)
The nature of experiment [16]: cytotoxicity toward NIH3T3 fibroblasts, dose response, counter-screen, cell-based, ATP luminescence, mouse fibroblasts (AID 2010).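 Note: cells exposed to compound for about 90 hours before reading.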 It is filed as functional.
Experiment [17] in a line: inhibitors of intracellular T. cruzi replication, confirmation, NIH3T3 host cells, beta-gal luminescence (AID 2044).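 Note: intracellular parasites grown in NIH/3T3 mouse fibroblasts as host cells; luminescent beta-galactosidase reporter signal from transgenic T. cruzi replicating inside host cells; inhibitors lower the luminescence signal.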 It is filed as functional, cell-based.
A short description of experiment [18]: cells. The source holds these as a separate data set.

A word on the AC50: it is the midpoint of the concentration-response curve, whichever way the signal moves.

The source made the active and inactive calls.

T1 sequence (Q92731 whole entry): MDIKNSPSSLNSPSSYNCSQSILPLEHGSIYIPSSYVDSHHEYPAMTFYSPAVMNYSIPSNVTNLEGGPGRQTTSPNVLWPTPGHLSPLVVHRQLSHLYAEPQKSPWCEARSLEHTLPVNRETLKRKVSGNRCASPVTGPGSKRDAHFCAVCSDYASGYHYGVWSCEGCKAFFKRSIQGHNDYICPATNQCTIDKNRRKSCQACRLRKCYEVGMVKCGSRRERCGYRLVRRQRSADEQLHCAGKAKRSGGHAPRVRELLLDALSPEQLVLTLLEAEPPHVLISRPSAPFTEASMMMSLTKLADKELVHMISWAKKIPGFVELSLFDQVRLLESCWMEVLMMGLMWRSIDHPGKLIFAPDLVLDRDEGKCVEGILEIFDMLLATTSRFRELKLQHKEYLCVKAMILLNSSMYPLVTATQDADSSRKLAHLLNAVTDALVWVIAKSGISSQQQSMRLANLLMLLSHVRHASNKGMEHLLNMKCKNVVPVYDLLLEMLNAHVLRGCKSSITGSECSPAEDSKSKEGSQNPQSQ
Chain of Voltage-gated inwardly rectifying potassium channel KCNH2 (Q12809 whole entry): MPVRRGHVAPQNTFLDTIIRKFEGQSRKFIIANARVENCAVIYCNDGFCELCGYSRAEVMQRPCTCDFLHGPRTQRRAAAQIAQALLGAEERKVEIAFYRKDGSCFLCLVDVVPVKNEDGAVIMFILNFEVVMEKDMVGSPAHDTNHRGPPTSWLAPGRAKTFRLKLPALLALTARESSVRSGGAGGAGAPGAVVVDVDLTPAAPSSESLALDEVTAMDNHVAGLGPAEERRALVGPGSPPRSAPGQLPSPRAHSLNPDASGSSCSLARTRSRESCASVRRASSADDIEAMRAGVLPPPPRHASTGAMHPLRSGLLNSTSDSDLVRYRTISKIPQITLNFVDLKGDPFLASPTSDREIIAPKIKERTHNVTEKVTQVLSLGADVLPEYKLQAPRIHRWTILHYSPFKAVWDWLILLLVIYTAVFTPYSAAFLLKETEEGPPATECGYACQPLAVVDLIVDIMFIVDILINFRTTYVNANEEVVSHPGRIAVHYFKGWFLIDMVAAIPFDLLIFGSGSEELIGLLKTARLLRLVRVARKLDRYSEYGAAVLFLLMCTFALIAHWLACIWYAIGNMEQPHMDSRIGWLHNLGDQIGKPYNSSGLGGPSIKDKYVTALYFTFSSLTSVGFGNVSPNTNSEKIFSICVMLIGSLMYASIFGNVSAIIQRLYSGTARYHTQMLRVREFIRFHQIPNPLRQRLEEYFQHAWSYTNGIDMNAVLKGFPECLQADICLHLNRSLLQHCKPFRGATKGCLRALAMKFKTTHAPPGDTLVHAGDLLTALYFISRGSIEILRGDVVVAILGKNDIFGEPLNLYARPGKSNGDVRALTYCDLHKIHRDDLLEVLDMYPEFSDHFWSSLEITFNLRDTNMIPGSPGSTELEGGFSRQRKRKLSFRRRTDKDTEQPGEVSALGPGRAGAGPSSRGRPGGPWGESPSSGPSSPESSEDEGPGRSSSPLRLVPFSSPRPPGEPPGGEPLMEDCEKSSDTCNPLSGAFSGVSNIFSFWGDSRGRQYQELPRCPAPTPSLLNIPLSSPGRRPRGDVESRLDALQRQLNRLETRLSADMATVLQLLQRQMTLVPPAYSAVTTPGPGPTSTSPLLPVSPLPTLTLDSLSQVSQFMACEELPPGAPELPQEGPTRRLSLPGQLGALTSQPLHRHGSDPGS
Chain of Luciferin 4-monooxygenase (P08659 whole entry): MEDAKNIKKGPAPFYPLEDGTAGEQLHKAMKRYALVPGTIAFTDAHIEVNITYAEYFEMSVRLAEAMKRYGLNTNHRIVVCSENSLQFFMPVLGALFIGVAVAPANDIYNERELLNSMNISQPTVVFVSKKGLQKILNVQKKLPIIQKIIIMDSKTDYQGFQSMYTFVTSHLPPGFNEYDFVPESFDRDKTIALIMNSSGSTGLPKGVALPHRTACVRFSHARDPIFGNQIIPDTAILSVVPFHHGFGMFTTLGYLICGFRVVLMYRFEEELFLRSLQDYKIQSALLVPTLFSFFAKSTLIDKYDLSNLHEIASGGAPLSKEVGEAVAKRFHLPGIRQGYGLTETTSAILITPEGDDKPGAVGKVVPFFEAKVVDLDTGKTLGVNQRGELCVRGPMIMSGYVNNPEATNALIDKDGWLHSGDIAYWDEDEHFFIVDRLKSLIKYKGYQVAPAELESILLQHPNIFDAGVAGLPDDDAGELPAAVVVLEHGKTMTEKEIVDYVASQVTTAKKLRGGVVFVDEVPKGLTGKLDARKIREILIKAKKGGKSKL

As to `O=c1cnn([C@@H]2O[C@H](CO)[C@@H](O)[C@H]2O)c(=O)[nH]1` [6-AZAURIDINE], the values for the IC50 (in [1]; in “cells [3]”) were 2.32 µM (active) and 2.28 µM (active), respectively. Besides, the CC50 in experiment [2] was 11.9 µM (active).

On to `CCS(=O)(=O)N1Cc2ccccc2CC1C(=O)N1CCN(c2cccc(C)c2C)CC1` (centres undefined), for which the IC50 is > 50 µM (not active) against Estrogen receptor beta [4], 80 µM (inactive) at Bcl-2-like protein 10 and 2.96 µM (not active) on Estrogen receptor beta [5].

Take `CNC(=O)c1c(NC(=O)c2nc3ccccc3s2)sc2c1CCC2`: the IC50 against Estrogen receptor beta [4] is > 50 µM (not active); against Estrogen receptor beta [5] it was < 0.023 µM (not active).

With `Cc1nccc(-c2ccc(-n3c(C)ccc3C)cc2)n1`, the IC50 in experiment [6] is > 100 µM (active).

In the case of `Cc1cc(=O)oc2c1ccc1oc(/C(=N/O)c3ccccc3)c(C)c12`, the values for the CC50 (in the experiment with Vero; in experiment [2]) were 18.1 µM (active) and < 0.1 µM (active), respectively. The IC50 in experiment [7] is 24.5 µM (active); in “cells [3]” it was 18.3 µM (active). For the same compound, in [8], the EC50 is > 53 µM (inactive).

In the case of `Cn1ccnc1SCc1cn2cc(Br)ccc2n1`, the EC50 in [9] was 38.1 µM (active); in the experiment with HT-1080, > 50 µM (not active); in [10] it was 7.92 µM (active); in experiment [11] it was 7.22 µM (inconclusive).

`O=C(CCc1nc(-c2cccs2)no1)Nc1cnc2ccccc2c1`: the IC50 in experiment [6] is > 100 µM (active).

As to `CC1CCCC(NC(=O)NC(=O)CCl)C1C` (centres undefined), the AC50 in experiment [12] was 12.4 µM (active); in experiment [13] it was 23.2 µM (active). Besides, the IC50 in [1] was 1.02 µM (active). In addition, the CC50 in experiment [14] is 10.4 µM (active). Also, the EC50 at Protein RecA is 6.19 µM (active).

`CCOc1ccc2nc(/N=C/c3nc(-c4ccc(Br)cc4)oc3O)sc2c1`: the figures for the EC50 in [8] and in [15] were > 53 µM (inactive) and 160 nM (active), respectively.

On to `CCc1c(C)c(C#N)c2nc3ccccc3n2c1NCCN(C)C`, for which the EC50 is > 30 µM (not active) in experiment [16], < 100 nM (active) in [17] and 14 nM (active) in “cells [18]”.

(Values after ChEMBL document CHEMBL1201862, “PubChem BioAssay data set” (2004).)
